Test [1] relates to M. persicae (green peach aphid) insecticide-susceptible population. In words: Leaf dip bioassay, green peach aphid, susceptible population. The class given is in vivo, Myzus persicae. The method, then: (§1) Each colony was maintained separately on bok choi plants ([…]) within an exclusion cage in a constant temperature room at 24° C. with a photoperiod of 16:8 LD.
(§2) Laboratory bioassays were used to determine the efficacy of flavesone against M. persicae following the leaf dip method described in Moores et al. (1994, Pesticide Biochemistry and Physiology, 49, 114-120). A pilot study was first conducted which confirmed that the leaf dip method was appropriate to elicit a clear dose response for Flavocide 500EW against M. persicae, and to determine the appropriate rate range and timing of mortality assessments (scored at 24, 48, 72 & 96 hours) (data not shown).
(§3) Bioassays were then conducted to assess the efficacy of flavesone against a susceptible and resistant population of M. persicae, and to calculate LC values. The efficacy of a conventional insecticide, pirimicarb, was tested for comparison. Nine concentrations of flavesone ranging from 1×10^−3 to 10 times the proposed field rate (Table 15), and six concentrations of pirimicarb were serially diluted and tested, along with a water control, against the susceptible and resistant aphid populations. Leaf discs (25 mm diameter) cut from bok choi leaves were submerged for 1 second in the insecticide solutions, or in the water control, and placed adaxial side up on 10 g/L agar in 35 mm petri dishes. Six replicate leaf discs were prepared per treatment. Once leaves were air-dry, eight M. persicae nymphs were transferred to each insecticide-dipped leaf disc using a fine-haired paintbrush.
(§4) After aphid introduction, each petri dish was inverted onto a lid containing a 25 mm diameter filter paper to control humidity. All petri dishes were then placed into an incubator held at 18° C.±2° C. with a photoperiod of 16:8 LD cycle. At 48 & 96 hours, aphids were scored as alive (vibrant and moving freely), dead (not moving over a 5 second period), or incapacitated (inhibited movement).
(§5) Dose-response curves were generated by plotting percentage mortality against log concentration. Mortality data was analysed using a logistic regression model with random effects. Logistic regression is suited for the analysis of binary response data (i.e. dead/alive) with the random effect component of the model controlling for the non-independence of mortality scores within replicates. […] Population differences were tested by comparing the change in model deviance with and without the population factor (different regression intercepts for each population). Differences in regression slopes between populations were tested by comparing the change in model deviance with and without the population×dose interaction term.

Test [2] relates to M. persicae (green peach aphid) population resistant to carbamates and synthetic pyrethroids. The test can be described thus: Leaf dip bioassay, green peach aphid, resistant population. The class given is in vivo, Myzus persicae. The settings on record: Resistant population; 0.025-2500.0 mg a.i./L; 48 and 96 hours. The method, then: as §1, §2, §3, §4, §5
Test [3] has as its system Aedes aegypti Liverpool strain (insecticide susceptible, LVP) L3 larvae. In words: Mosquito larval dose response assay, LVP strain. The settings on record: read-out: Lethal Concentration (LC50) LVP Strain.
The subject of test [4] is Rhyzopertha dominica strain QRD1440 (resistant to OP protectants and pyrethroids). In words: Grain protectant bioassay on treated wheat, resistant lesser grain borer. The settings on record: Example 5, QRD1440, 1 ppm on wheat, replicates A, B, C.
For test [5], the system named is Aedes aegypti PRS Puerto Rican strain (synthetic pyrethroid resistant) L3 larvae. In words: Mosquito larval dose response assay, PRS strain. The settings on record: read-out: Lethal Concentration (LC50) PRS Strain.
Setting [6] is: Susceptible population, 96 hours exposure.

Molecules are shown by their SMILES. Converted amounts (≈) assume the structure as drawn. “And” between values parts separate entries of the source, which are not always exact repeats. Equal entries are not always repeated. Where two headings read alike, the source gives them in different places.

In the case of `Cc1nc(N(C)C)nc(OC(=O)N(C)C)c1C` [Pirimicarb, pirimicarb, reference compound], the LC50 in test [1] (Myzus persicae, foliar, 96 h, read-out: LC50 (mg a.i./L)) was 18.5 µg/mL (≈ 77.6 µM). In test [1] (setting [6]), the “LC90 (mg a.i./L)” value was 78.9 mg a.i./L and the “LC99 (mg a.i./L)” value is recorded as 384 mg a.i./L. Moreover, the mortality observed entry in test [2] was “Very low mortality”.

`CC1(C)[C@H](C(=O)O[C@H](C#N)c2cccc(Oc3ccccc3)c2)[C@@H]1C=C(Br)Br` [Deltamethrin, deltamethrin, reference compound]: the LC50 amounted to 0.0119 µg/mL (≈ 0.0236 µM) in test [3] (24 h); 0.0049 µg/mL (≈ 0.0097 µM) in test [3] (48 h); 0.0037 µg/mL (≈ 0.00732 µM) in test [3] (72 h); 0.0522 µg/mL (≈ 0.103 µM) in test [5] (24 h); 0.0501 µg/mL (≈ 0.0992 µM) in test [5] (48 h); 0.0412 µg/mL (≈ 0.0816 µM) in test [5] (72 h). The “F1 Progeny count No. dead/total” value in test [4] (further 6 weeks) is 0/142 and 0/79 and 2/292. Moreover, the “14 Day adult mortality No. dead (total)” value in test [4] is 1/50 (2×) and 0/50.

For the molecule `CC1(C)C(C=C(Cl)Cl)C1C(=O)OCc1cccc(Oc2ccccc2)c1` (stereo not drawn) [Permethrin, permethrin], the LC50 in test [3] (24 h) came out at 0.0219 µg/mL (≈ 0.056 µM); in test [3] (48 h), 0.0162 µg/mL (≈ 0.0414 µM); in test [3] (72 h), 0.0166 µg/mL (≈ 0.0424 µM); in test [5] (24 h), 0.164 µg/mL (≈ 0.42 µM); in test [5] (48 h), 0.15 µg/mL (≈ 0.385 µM); in test [5] (72 h), 0.128 µg/mL (≈ 0.327 µM).

With `CCOC(=O)CC(SP(=S)(OC)OC)C(=O)OCC` (stereo not drawn) [Malathion, malathion], the LC50 in test [3] (24 h) turned out to be 0.11 µg/mL (≈ 0.334 µM); in test [3] (48 h), 0.0389 µg/mL (≈ 0.118 µM); in test [3] (72 h) it was 0.0298 µg/mL (≈ 0.0901 µM); in test [5] (24 h) it was 0.291 µg/mL (≈ 0.88 µM); in test [5] (48 h) it was 0.177 µg/mL (≈ 0.535 µM); in test [5] (72 h) it was 0.127 µg/mL (≈ 0.384 µM).

The values are drawn from patent US11259522B2, “Control of resistant pests” (priority 2017, dated 2022).
